Results reported in article PMC5458211, “Mitochondrial VDAC1-based peptides: Attacking oncogenic properties in glioblastoma” (Oncotarget, 2017).
Non-standard residues stand in square brackets, D forms with d. Residues, ends and D or L forms follow the SMILES beside them.

Legend:
[1] = test system: G7 stem cells; assay: Apoptosis by FITC-Annexin V/PI staining and flow cytometry, G7; type: cell-based, GBM patient; settings: 3 h at 37°C, Fig 6G-H
Procedure: Sections were also hematoxylin-stained and visualized by microscopy. B. Tissue lysates obtained from controls and several TF-D-LP4-TTs were immunoblotted for Nestin, Sox2, NGFR, CD133, and Klf4. C. Quantitative analysis of immunoblots is shown (n=2-4). D. Immunoblot analysis of, Klf4, Sox2, Nestin and Musashi expression in U-87MG and G7 cell lines, using specific antibodies. E. Quantitative analysis of immunoblots. […] G. G7 (·) and U-87MG cells (○) (2×10^5) were incubated for 3 h with the DMSO (0.15%) or with the indicated concentration of Retro-Tf-D-LP4 peptide in serum-free growth medium at 37°C and then subjected to FITC-Annexin V/PI staining and flow cytometry analysis. H. Representative FACS analysis of DMSO- (left) and 5 μM of Retro-Tf-D-LP4- (right) treated G7 or U-87MG cells.
(§1) Cells (6×10^5 /ml) were incubated in 500 μl serum-free medium with the peptide of interest for 6 h at 37°C in the presence of 5% CO2. The cells were then trypsinized, centrifuged (1500xg, 5 min), washed with PBS and analyzed for cell death using propidium iodide (PI) staining and flow cytometer (Beckton-Dickinson, San Jose, CA) and BD CellQuest Pro software. Apoptotic cell death was also analyzed by PI and annexin V-FITC staining, and by acridine orange and ethidium bromide staining and light microscopy (Olympus LX2-KSP).

[2] = test system: U-87MG cells; assay: Cell death by propidium iodide (PI) staining and flow cytometry, U-87MG; type: cell-based, human; settings: 6 h at 37°C, serum-free medium, means ± SD (n=3), Fig 1H, read-out: IC50 for inducing cell death
Source text: Figure 1 VDAC1-based peptides induce dramatic cell death of several brain tumor-derived cell lines but to lesser extent in primary brain cells A. IHC staining of VDAC1 of human normal brain (n=13) or glioblastoma (n=41) in tissue array slides (Biomax), as described in Materials and methods available online in Supplemental information. Percentages of sections stained at the intensity indicated are shown. […] The VDAC1-derived sequences Δ(1-14)N-terminus and LP4 are in green and pink, respectively. The cell-penetrating peptides Antp and Tf are in orange and blue, respectively. The loop shape of LP4 stabilized by a tryptophan zipper is in purple. The amino acids of Δ(1-14)N-terminus, LP4 and Antp are in the D configuration. […] Cells were harvested, washed twice with PBS and cell death was analyzed by propidium iodide (PI) staining and flow cytometry. […] Cells were harvested, washed twice with PBS and cell death was analyzed by PI staining and flow cytometry. […]
Sections were also hematoxylin-stained and visualized by microscopy. […] Quantitative analysis of immunoblots is shown (n=2-4). […] E. Quantitative analysis of immunoblots. […]
[…] The cells were then trypsinized, centrifuged (1500xg, 5 min), washed with PBS and analyzed for cell death using propidium iodide (PI) staining and flow cytometer (Beckton-Dickinson, San Jose, CA) and BD CellQuest Pro software. […]

[3] = test system: SH-SY5Y cells; assay: Apoptosis by acridine orange/ethidium bromide staining, SH-SY5Y; type: cell-based, human; settings: 3 h, Suppl Fig 2B
Procedure: as §1, with “Cells (6×10^5 /ml) were incubated in 500 μl serum-free medium with the peptide of interest for 6 h at 37°C in the presence of 5% CO2.” left out
Supplementary Figure 2: Mode of action of VDAC1-based peptides. […]
detachment. SH-SY5Y cells (4×10^4/ml) were grown on cover slips, transfected with plasmid pEGFP-HK-I and after 24 h, were incubated […]
The final DMSO concentration in control and peptide-treated cells was 0.07%. Fixed cells were stained with DAPI and visualized by confocal microscopy (Olympus 1X81). Arrows indicate cells […]
showing diffusion of HK-I-GFP. B-C. […] B. SH-SY5Y cells were treated with the indicated […]
Arrows and arrowheads indicate cells with membrane blebbing (early apoptotic state) and late apoptotic states, respectively. C. Morphological analysis of apoptosis by electron microscopy (EM). For transmission EM, U-87MG cells (1.6 x10^6 /ml) were incubated with the indicated concentrations of D-ΔN-Ter-Antp peptide or DMSO (0.3% final concentration) for 6 h in serum-free medium. […]

CC[C@H](C)[C@H](NC(=O)[C@H](Cc1ccc(O)cc1)NC(=O)[C@@H]1CCCN1C(=O)[C@H](CCCNC(=N)N)NC(=O)[C@H](Cc1c[nH]cn1)NC(=O)[C@H](CO)NC(=O)[C@H](Cc1c[nH]c2ccccc12)NC(=O)[C@@H](NC(=O)[C@H](Cc1c[nH]c2ccccc12)NC(=O)[C@H](CCC(=O)O)NC(=O)[C@@H](CCCCN)NC(=O)[C@@H](CCCCN)NC(=O)[C@@H](CC(C)C)NC(=O)[C@@H](CCC(=O)O)NC(=O)[C@H](NC(=O)[C@@H](C)NC(=O)[C@H](NC(=O)[C@@H](CC(N)=O)NC(=O)[C@@H](CC(C)C)NC(=O)[C@@H](C)NC(=O)[C@@H](Cc1c[nH]c2ccccc12)NC(=O)[C@H](NC(=O)[C@@H](C)NC(=O)CNC(=O)[C@@H](CC(N)=O)NC(=O)[C@@H](CO)NC(=O)[C@@H](CC(N)=O)NC(=O)[C@H](CCCCN)NC(=O)[C@H](Cc1c[nH]c2ccccc12)NC(=O)[C@@H](NC(=O)[C@H](Cc1c[nH]c2ccccc12)NC(=O)[C@@H](N)CCCCN)[C@@H](C)O)[C@H](C)O)C(C)C)[C@H](C)O)[C@@H](C)O)C(=O)N[C@@H](C)C(=O)N[C@@H](Cc1c[nH]cn1)C(=O)O [Retro-Tf-D-LP4]
apoptosis of G7 stem cells [1]: induces apoptosis

CC[C@@H](C)[C@@H](NC(=O)[C@@H](CCCCN)NC(=O)[C@H](NC(=O)[C@@H](CCC(N)=O)NC(=O)[C@@H](CCCNC(=N)N)NC(=O)[C@@H](CC(C)C)NC(=O)CNC(=O)[C@@H](Cc1ccccc1)NC(=O)CNC(=O)[C@@H](Cc1ccc(O)cc1)NC(=O)CNC(=O)[C@@H](CCCCN)NC(=O)[C@H](NC(=O)[C@@H](Cc1ccccc1)NC(=O)[C@H](NC(=O)[C@@H](CC(=O)O)NC(=O)[C@H](N)CCCNC(=N)N)C(C)C)[C@H](C)O)[C@H](C)CC)C(=O)N[C@H](Cc1c[nH]c2ccccc12)C(=O)N[C@H](Cc1ccccc1)C(=O)N[C@H](CCC(N)=O)C(=O)N[C@H](CC(N)=O)C(=O)N[C@H](CCCNC(=N)N)C(=O)N[C@H](CCCNC(=N)N)C(=O)N[C@H](CCSC)C(=O)N[C@H](CCCCN)C(=O)N[C@H](Cc1c[nH]c2ccccc12)C(=O)N[C@H](CCCCN)C(=O)N[C@H](CCCCN)C(=O)O [D-ΔN-Ter-Antp] (H-[dR][dD][dV][dF][dT][dK]G[dY]G[dF]G[dL][dR][dQ][dI][dK][dI][dW][dF][dQ][dN][dR][dR][dM][dK][dW][dK][dK]-OH; N-terminus and C-terminus assumed)
IC50 [2]: 3.2 ± 0.6 µM

CC[C@H](C)[C@H](NC(=O)[C@H](C)NC(=O)[C@@H](N)Cc1c[nH]cn1)C(=O)N[C@@H](Cc1ccc(O)cc1)C(=O)N1CCC[C@H]1C(=O)N[C@@H](CCCNC(=N)N)C(=O)N[C@@H](Cc1c[nH]cn1)C(=O)N[C@@H](CO)C(=O)N[C@@H](Cc1c[nH]c2ccccc12)C(=O)N[C@H](C(=O)N[C@@H](Cc1c[nH]c2ccccc12)C(=O)N[C@@H](CCC(=O)O)C(=O)N[C@H](CCCCN)C(=O)N[C@H](CCCCN)C(=O)N[C@H](CC(C)C)C(=O)N[C@H](CCC(=O)O)C(=O)N[C@@H](C(=O)N[C@H](C)C(=O)N[C@@H](C(=O)N[C@H](CC(N)=O)C(=O)N[C@H](CC(C)C)C(=O)N[C@H](C)C(=O)N[C@H](Cc1c[nH]c2ccccc12)C(=O)N[C@@H](C(=O)N[C@H](C)C(=O)NCC(=O)N[C@H](CC(N)=O)C(=O)N[C@H](CO)C(=O)N[C@H](CC(N)=O)C(=O)N[C@@H](CCCCN)C(=O)N[C@@H](Cc1c[nH]c2ccccc12)C(=O)N[C@H](C(=O)N[C@@H](Cc1c[nH]c2ccccc12)C(=O)N[C@@H](CCCCN)C(=O)O)[C@@H](C)O)[C@H](C)O)C(C)C)[C@H](C)O)[C@@H](C)O [Tf-D-LP4]
apoptosis induction, SH-SY5Y [3]: induce apoptosis
